# According to article PMC10303271, “Synthesis and Receptor Binding Studies of α5 GABAAR Selective Novel Imidazodiazepines Targeted for Psychiatric and Cognitive Disorders” (Molecules, 2023):
# Where two headings read alike, the source gives them in different places.
# Assays:
# [1] = target: T1, A1 (Homo sapiens, UniProt P30542); assay: PDSP primary binding A1; conditions: 1.5 h; primary binding, 10,000 nM; last figure of the line = mean of the 4 before it; read-out: A1, PDSP raw data, mean
# T1 construct: purchased NIMH Psychoactive Drug Screening Program (PDSP)
# T1 sequence (P30542 1-326): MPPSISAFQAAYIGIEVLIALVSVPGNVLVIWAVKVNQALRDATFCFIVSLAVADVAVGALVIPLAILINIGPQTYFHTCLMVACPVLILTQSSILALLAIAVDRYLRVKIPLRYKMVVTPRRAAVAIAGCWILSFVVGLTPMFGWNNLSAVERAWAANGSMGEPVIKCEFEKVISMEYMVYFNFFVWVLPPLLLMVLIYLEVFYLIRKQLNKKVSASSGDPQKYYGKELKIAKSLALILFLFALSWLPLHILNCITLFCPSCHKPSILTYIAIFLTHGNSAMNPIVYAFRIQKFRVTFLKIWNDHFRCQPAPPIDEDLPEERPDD
# Procedure: (§1) To determine if any off-target receptor-binding effects are present, all the novel ligands were sent to the National Institute of Mental Health (NIMH), Psychoactive Drug Screening Program (PDSP). The ligands were screened over a panel of 47 receptors, ion channels, and transporters to determine any other possible interactions with […]. The hERG-binding was also determined. […] No binding of the test compounds to calcium channels was observed. […] It is necessary to screen the compounds for hERG-binding during the early process of drug discovery. The unintentional binding of many drugs to hERG can cause blockade of hERG K+ channels in the heart, which can cause many side effects including cardiac arrhythmias and sudden death. […] All of the α5 imidazodiazepines were tested for hERG-binding.
# (§2) The NIMH PDSP assay protocol book [https://kidbdev.med.unc.edu/databases/PDSP%20Protocols%20II%202013-03-28.pdf accessed on 23 April 2023]. describes the protocols for primary and secondary radio-ligand binding assays. These assays were carried out in a final volume of 125 µL per well in the appropriate binding buffer.
# (§3) The binding of a ligand to a receptor, ion channel, or transporter was determined in the […] of 10 µM of the appropriate reference compound. […] Plates were incubated in the dark for 90 min at rt, and the reactions were stopped by vacuum filtration onto 0.3% polyethyleneimine (PEI) soaked 96-well filter mats using a 96-well Filtermateharvester. This was followed by three washes with cold PBS buffer. Radioactivity was then counted on a Microbeta counter. Nonlinear regression was used to analyze the data with N = 6 replicates.
# [2] = target: T2, H1 (Homo sapiens, UniProt P35367); assay: PDSP primary binding H1; conditions: primary binding, 10,000 nM; last figure of the line = mean of the 4 before it; read-out: H1, PDSP raw data, mean
# T2 construct: purchased NIMH Psychoactive Drug Screening Program (PDSP)
# T2 sequence (P35367 whole entry): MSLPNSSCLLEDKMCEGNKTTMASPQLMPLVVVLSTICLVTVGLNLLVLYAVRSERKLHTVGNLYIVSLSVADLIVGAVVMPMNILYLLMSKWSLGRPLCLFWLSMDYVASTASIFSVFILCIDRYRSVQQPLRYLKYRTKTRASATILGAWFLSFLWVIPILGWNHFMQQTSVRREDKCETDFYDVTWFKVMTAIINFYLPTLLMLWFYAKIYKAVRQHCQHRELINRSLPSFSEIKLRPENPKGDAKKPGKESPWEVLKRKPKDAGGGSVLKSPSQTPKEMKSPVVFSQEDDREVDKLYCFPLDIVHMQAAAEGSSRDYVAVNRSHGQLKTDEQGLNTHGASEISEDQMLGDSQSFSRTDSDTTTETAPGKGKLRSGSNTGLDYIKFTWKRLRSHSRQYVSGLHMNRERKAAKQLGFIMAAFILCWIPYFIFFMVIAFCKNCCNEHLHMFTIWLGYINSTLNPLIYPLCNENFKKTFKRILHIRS
# Procedure: as §1, §2, §3
# [3] = target: T3, Alpha2B (Homo sapiens, UniProt P18089); assay: PDSP primary binding Alpha2B; conditions: 1.5 h; primary binding, 10,000 nM; last figure of the line = mean of the 4 before it; read-out: Alpha2B, PDSP raw data, mean
# T3 construct: purchased NIMH Psychoactive Drug Screening Program (PDSP)
# T3 sequence (P18089 1-450): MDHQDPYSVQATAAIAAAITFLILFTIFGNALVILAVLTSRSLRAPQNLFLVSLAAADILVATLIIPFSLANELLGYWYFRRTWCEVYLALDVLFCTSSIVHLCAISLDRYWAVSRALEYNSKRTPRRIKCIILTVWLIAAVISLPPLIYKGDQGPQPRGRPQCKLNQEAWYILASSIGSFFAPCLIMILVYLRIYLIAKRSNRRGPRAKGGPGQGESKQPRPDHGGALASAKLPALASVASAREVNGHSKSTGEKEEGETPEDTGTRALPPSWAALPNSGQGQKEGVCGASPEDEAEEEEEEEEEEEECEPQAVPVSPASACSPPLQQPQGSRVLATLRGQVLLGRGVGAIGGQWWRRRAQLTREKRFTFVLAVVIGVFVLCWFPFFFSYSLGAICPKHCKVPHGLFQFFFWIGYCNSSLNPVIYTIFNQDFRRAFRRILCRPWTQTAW
# Procedure: as §1, §2, §3
# [4] = target: T4, Alpha4Beta4 (Rattus norvegicus, UniProt P09483+P12392); assay: PDSP primary binding Alpha4Beta4; conditions: primary binding, 10,000 nM; last figure of the line = mean of the 4 before it; read-out: Alpha4Beta4, PDSP raw data, mean
# T4 construct: purchased NIMH Psychoactive Drug Screening Program (PDSP)
# T4 sequence (P09483 31-630): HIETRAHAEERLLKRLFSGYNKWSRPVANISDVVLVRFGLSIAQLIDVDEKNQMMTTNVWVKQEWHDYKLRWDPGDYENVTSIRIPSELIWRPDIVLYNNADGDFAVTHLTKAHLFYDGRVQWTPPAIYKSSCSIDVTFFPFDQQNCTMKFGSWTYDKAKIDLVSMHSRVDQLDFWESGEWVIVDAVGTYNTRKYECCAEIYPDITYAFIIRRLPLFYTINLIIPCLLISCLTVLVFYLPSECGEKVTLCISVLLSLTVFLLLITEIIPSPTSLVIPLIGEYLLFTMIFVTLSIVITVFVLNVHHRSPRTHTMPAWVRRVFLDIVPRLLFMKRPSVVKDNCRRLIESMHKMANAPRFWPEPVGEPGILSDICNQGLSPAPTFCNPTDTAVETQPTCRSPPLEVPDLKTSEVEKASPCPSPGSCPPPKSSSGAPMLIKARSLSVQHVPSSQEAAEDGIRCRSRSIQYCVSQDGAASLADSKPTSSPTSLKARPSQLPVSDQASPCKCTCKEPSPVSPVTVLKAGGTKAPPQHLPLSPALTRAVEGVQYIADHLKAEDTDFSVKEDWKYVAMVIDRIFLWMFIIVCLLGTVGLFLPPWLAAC
# T4 sequence (P12392 21-495): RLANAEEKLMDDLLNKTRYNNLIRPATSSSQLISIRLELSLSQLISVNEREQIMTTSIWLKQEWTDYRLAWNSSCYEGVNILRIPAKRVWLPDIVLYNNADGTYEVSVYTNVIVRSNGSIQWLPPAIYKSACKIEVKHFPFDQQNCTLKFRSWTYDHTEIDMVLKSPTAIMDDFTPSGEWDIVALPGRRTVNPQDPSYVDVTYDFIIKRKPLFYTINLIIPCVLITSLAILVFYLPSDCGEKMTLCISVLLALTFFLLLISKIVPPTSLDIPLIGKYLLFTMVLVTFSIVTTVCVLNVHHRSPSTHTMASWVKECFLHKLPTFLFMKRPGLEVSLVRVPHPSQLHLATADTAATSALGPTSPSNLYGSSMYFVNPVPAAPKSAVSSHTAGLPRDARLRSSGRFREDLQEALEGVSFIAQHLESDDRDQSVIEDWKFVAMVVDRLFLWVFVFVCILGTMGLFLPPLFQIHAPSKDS
# Procedure: as §1, §2, §3
# [5] = target: kappa opioid receptors (KOR) (Homo sapiens, UniProt P41145); assay: PDSP radioligand binding at KOR; conditions: for inhibition at 10 µM: 1.5 h
# Sequence of kappa opioid receptors (KOR) (P41145 whole entry): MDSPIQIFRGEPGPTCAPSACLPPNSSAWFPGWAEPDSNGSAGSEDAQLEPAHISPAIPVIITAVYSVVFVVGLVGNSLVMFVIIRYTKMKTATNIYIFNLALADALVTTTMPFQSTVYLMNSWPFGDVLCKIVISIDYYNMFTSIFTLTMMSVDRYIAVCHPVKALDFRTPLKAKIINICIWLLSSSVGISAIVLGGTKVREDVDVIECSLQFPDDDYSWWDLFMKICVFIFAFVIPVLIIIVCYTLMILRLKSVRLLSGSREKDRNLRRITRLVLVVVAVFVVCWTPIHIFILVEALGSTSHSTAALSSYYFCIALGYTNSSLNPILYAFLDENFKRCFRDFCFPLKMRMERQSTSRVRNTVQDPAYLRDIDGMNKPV
# Description: Opioid receptors are a family of inhibitory G-coupled protein receptors where opioids act as the ligand. The kappa opioid receptors (KOR), µ and δ opioid receptors (MOR and DOR), and nociception opioid receptor (NOP) fall under the family of opioids receptors. It has been reported that oxadiazole imidazodiazepines can mediate analgesic and anti-inflammatory properties mediated also by the κ opioid receptor (KOR). The binding at KOR is usually silent. The affinities of the test compounds for KOR, DOR, and MOR were determined using radioligand binding assays at a screening concentration of 10,000 nM in collaboration with the National Institute of Mental Health’s Psychoactive Drug Screening Program (PDSP), as mentioned before. Concentration-dependent experiments were conducted to determine Ki values for the compounds that exceeded more than 50% radioligand displacement in primary binding assays.
# as §2, §3
# [6] = target: T5, 5-HT1D (Homo sapiens, UniProt P28221); assay: PDSP primary binding 5-HT1D; conditions: 1.5 h; primary binding, 10,000 nM; last figure of the line = mean of the 4 before it; read-out: 5-HT1D, PDSP raw data, mean
# T5 construct: purchased NIMH Psychoactive Drug Screening Program (PDSP)
# T5 sequence (P28221 whole entry): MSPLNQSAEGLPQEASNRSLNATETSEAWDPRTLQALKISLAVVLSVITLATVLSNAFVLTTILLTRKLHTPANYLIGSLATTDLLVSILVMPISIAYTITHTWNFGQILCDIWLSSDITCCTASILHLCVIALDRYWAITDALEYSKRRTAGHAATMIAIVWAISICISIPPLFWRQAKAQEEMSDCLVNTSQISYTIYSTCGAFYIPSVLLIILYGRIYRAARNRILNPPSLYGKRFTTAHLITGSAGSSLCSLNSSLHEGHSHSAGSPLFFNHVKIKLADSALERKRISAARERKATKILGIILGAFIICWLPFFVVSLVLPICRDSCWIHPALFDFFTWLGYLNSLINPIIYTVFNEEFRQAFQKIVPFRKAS
# Procedure: as §1, §2, §3
# [7] = target: T6, 5-HT5A (Homo sapiens, UniProt P47898); assay: PDSP primary binding 5-HT5A; conditions: 1.5 h; primary binding, 10,000 nM; last figure of the line = mean of the 4 before it; read-out: 5-HT5A, PDSP raw data, mean
# T6 construct: purchased NIMH Psychoactive Drug Screening Program (PDSP)
# T6 sequence (P47898 whole entry): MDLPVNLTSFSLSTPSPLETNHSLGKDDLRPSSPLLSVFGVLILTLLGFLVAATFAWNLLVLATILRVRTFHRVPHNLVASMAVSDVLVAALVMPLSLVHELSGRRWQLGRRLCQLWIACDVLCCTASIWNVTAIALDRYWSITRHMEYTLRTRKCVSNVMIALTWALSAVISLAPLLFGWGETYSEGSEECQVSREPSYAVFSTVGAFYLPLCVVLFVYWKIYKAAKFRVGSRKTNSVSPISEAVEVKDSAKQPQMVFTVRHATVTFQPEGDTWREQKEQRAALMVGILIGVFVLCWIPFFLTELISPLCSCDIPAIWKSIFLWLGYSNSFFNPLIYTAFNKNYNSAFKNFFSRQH
# Procedure: as §1, §2, §3
# [8] = target: T7, Beta1 (Homo sapiens, UniProt P08588); assay: PDSP primary binding Beta1; conditions: 1.5 h; primary binding, 10,000 nM; last figure of the line = mean of the 4 before it; read-out: Beta1, PDSP raw data, mean
# T7 construct: purchased NIMH Psychoactive Drug Screening Program (PDSP)
# T7 sequence (P08588 whole entry): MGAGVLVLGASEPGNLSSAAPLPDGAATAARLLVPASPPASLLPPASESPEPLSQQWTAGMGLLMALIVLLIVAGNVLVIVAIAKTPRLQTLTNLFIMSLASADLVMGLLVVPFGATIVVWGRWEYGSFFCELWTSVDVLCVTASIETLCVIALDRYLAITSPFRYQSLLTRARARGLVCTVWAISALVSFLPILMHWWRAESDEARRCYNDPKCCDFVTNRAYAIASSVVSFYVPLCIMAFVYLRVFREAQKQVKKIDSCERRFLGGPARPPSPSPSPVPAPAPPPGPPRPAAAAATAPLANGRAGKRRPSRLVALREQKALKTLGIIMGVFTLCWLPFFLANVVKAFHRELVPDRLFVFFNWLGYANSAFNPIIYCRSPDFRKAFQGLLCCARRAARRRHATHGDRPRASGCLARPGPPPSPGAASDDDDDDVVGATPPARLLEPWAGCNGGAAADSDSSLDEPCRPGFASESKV
# Procedure: as §1, §2, §3
# [9] = target: T8, M3 (Homo sapiens, UniProt P20309); assay: PDSP primary binding M3; conditions: primary binding, 10,000 nM; last figure of the line = mean of the 4 before it; read-out: M3, PDSP raw data, mean
# T8 construct: purchased NIMH Psychoactive Drug Screening Program (PDSP)
# T8 sequence (P20309 whole entry): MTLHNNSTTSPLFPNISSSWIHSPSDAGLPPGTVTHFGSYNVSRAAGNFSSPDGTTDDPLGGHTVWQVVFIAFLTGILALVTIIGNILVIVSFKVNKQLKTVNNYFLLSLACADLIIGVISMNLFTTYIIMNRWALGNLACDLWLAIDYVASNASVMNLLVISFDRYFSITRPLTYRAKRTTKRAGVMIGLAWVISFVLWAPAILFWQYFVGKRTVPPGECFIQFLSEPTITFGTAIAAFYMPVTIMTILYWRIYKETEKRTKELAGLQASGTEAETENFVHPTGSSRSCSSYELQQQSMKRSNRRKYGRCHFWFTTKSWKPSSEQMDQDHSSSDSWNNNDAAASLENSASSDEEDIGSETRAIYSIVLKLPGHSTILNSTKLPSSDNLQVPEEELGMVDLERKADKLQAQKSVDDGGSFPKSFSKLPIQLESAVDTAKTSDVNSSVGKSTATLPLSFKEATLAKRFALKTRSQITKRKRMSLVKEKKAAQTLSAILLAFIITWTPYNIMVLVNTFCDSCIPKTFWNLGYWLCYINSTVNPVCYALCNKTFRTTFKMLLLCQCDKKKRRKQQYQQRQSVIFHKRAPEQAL
# Procedure: as §1, §2, §3
# [10] = target: T9, V2 (Homo sapiens, UniProt P30518); assay: PDSP primary binding V2; conditions: primary binding, 10,000 nM; last figure of the line = mean of the 4 before it; read-out: V2, PDSP raw data, mean
# T9 construct: purchased NIMH Psychoactive Drug Screening Program (PDSP)
# T9 sequence (P30518 whole entry): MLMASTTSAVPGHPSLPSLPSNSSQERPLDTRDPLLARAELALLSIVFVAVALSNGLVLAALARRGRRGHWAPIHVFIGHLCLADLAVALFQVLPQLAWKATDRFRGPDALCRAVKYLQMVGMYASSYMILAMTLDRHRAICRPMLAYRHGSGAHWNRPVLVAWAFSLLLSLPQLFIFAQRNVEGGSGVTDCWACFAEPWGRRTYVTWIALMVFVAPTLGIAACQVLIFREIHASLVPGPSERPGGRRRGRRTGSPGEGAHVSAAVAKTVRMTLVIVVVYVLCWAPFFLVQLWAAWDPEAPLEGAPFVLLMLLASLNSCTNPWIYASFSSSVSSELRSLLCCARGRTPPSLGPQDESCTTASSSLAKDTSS
# Procedure: as §1, §2, §3
# [11] = at 10,000 nM, N = 5, [3H]-U69593 0.83 nM, read-out: Primary Binding %KOR
# [12] = primary binding, 10,000 nM, last figure of the line = mean of the 4 before it, read-out: KOR, PDSP raw data, mean
Compound,inhibition at 10 µM [1],inhibition at 10 µM [2],inhibition at 10 µM [3],inhibition at 10 µM [4],"inhibition at 10 µM [5, 11]","inhibition at 10 µM [5, 12]",inhibition at 10 µM [6],inhibition at 10 µM [7],inhibition at 10 µM [8],inhibition at 10 µM [9],inhibition at 10 µM [10],"Ki ([5]; secondary screening, N = 2, read-out: KOR (Ki))"
"C#Cc1ccc2c(c1)C(c1ccccn1)=N[C@@H](C)c1c(C(=O)NC)ncn1-2 [Compound 23, (S)-8-Ethynyl-N,4-dimethyl-6-(pyridin-2′-yl)-4H-benzo[f]imidazo[1,5-a][1,4]diazepine-3-carboxamide]",10.4%,-2.54%,4.64%,4.42%,26.9 ± 6.21%,26.9%,-15.1%,-2.76%,-10.8%,0.11%,10.2%,–
"C[C@H]1N=C(c2ccccc2F)c2cc(-c3ccccc3)ccc2-n2cnc(C(=O)N(C)C)c21 [Compound 5, (R)-6-(2′-Fluorophenyl)-N,N,4-trimethyl-8-phenyl-4H-benzo[f]imidazo[1,5-a][1,4]diazepine-3-carboxamide]",25.9%,-10.4%,68.9%,1.99%,53.6 ± 7.24%,53.6%,-3.41%,53.6%,-15.8%,3.03%,19.7%,2.14 ± 0.311 µM
"C#Cc1ccc2c(c1)C(c1ccccn1)=N[C@@H](C)c1c(C(=O)N(C)C)ncn1-2 [Compound 31, (S)-8-Ethynyl-N,N,4-trimethyl-6-(pyridin-2′-yl)-4H-benzo[f]imidazo[1,5-a][1,4]diazepine-3-carboxamide]",32.2%,-7.38%,-0.93%,6.85%,-3.79 ± 4.99%,-3.79%,-15%,-7.46%,-16.2%,-13%,15.4%,–
